Experimental data as given in patent US20260070945A1, “MACROCYCLIC IMMUNOMODULATORS” (Bristol-Myers Squibb Company, priority 2022, published 2026).
*1 amine or outer side, *2 acyl side, *3 side chain or, on linkers, in order; H or OH if unused. Where a SMILES comes first, the peptide text is derived from it. Bridges are numbered along the chain shown (N, C = ends). [ ]: non-standard residue; d: D form. The star is where a group is joined. ξ: configuration not given here. Phe(3-CF3) = N[C@@H](Cc1cccc(C(F)(F)F)c1)C(=O)O; Phe(4-CONH2) = NC(=O)c1ccc(C[C@H](N)C(=O)O)cc1; Phe(4-COOH) = N[C@@H](Cc1ccc(C(=O)O)cc1)C(=O)O; Bip = N[C@@H](Cc1ccc(-c2ccccc2)cc1)C(=O)O; NH(CH2)14COOH = O=C(O)CCCCCCCCCCCCCCN*; Phe(3-Me) = Cc1cccc(C[C@H](N)C(=O)O)c1; γGlu = O=C(O)[C@H](CCC(=O)[*:2])N[*:1]; Val(3-OH) = CC(C)(O)[C@H](N)C(=O)O; mTyr = N[C@@H](Cc1cccc(O)c1)C(=O)O; hArg = N=C(N)NCCCC[C@H](N)C(=O)O; 4Pal = N[C@@H](Cc1ccncc1)C(=O)O; Aad = N[C@@H](CCCC(=O)O)C(=O)O; Cha = N[C@@H](CC1CCCCC1)C(=O)O; Cit = NC(=O)NCCC[C@H](N)C(=O)O; Ile(3ξ) = CCC(C)[C@H](N)C(=O)O; Thr(3ξ) = CC(O)[C@H](N)C(=O)O; Carboxymethyl = O=C(O)C*; NMeA = CN[C@@H](C)C(=O)O; Orn = NCCC[C@H](N)C(=O)O; Aun = NCCCCCCCCCCC(=O)O; Dab = NCC[C@H](N)C(=O)O; Dap = NC[C@H](N)C(=O)O; AEEA = NCCOCCOCC(=O)O

Target: T1, PD-1/PD-L1 interaction (PE-labeled human PD-L1-Ig binding to Jurkat cell line over-expressing human PD-1) (Homo sapiens, UniProt Q15116)
T1 construct: expressed in transfected cells; host or cells: Jurkat
T1 sequence (Q15116 25-288): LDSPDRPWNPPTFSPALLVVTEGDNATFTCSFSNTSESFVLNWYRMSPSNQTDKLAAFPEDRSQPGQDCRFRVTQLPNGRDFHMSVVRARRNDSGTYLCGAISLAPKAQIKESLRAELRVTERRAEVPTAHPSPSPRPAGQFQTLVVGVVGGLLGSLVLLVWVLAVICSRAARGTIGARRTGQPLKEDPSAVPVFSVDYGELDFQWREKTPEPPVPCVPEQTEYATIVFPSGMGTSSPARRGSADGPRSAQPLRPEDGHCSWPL
Experiment: Jurkat-PD-1 Cell Binding High-Content Screening Assay (CBA)
Settings: Jurkat-hPD-1 cells, PE-labeled PD-L1-Ig 20 nM final; read-out: Jurkat HPD1 PDL1 IC50
Outline: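 Cells 8×10^3/well, DMEM + 10% FCS; cpd 2 h, 37 °C; PE–PD-L1-Ig 20 nM final, 1 h; PFA fix + Hoechst 33342, 3× dPBS wash; high-content imager.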

Row | Compound | IC50
1 | CC(C)C[C@@H]1NC(=O)[C@H](Cc2c[nH]c3ccccc23)NC(=O)[C@H](CC(=O)O)NC(=O)[C@H](Cc2ccc(C(=O)O)cc2)NC(=O)[C@H](Cc2ccc(OCC(=O)O)cc2)NC(=O)CSC[C@@H](C(=O)N[C@@H](CCCN)C(=O)NCCOCCOCC(=O)NCCCCCCCCCCC(=O)O)NC(=O)[C@H](CCCCN)NC(=O)[C@H](C(C)C)NC(=O)[C@H](CC2CCCCC2)NC(=O)[C@H](CCN)NC(=O)[C@@H](CC(C)C)NC(=O)[C@H](C)N(C)C(=O)[C@H](C(C)C)NC(=O)[C@H](Cc2ccc(-c3ccccc3)cc2)NC1=O [Example 2151] ({CH2CO}-Y(Carboxymethyl)[Phe(4-COOH)]DWL[Bip]V[NMeA][dL][Dab][Cha]VKC[Orn][AEEA][Aun]-OH; thioether N-14) | 8.5 nM
2 | CC(C)[C@@H]1NC(=O)[C@H](CC2CCCCC2)NC(=O)[C@H](CCN)NC(=O)[C@@H](C)NC(=O)[C@H](C)N(C)C(=O)[C@H](Cc2ccc(O)cc2)NC(=O)[C@H](Cc2ccc(-c3ccccc3)cc2)NC(=O)[C@H](Cc2ccc(O)cc2)NC(=O)[C@H](Cc2cccc(O)c2)NC(=O)[C@H](CC(=O)O)NC(=O)[C@H](Cc2ccc(OCC(=O)O)cc2)NC(=O)[C@H](CN)NC(=O)CSC[C@@H](C(=O)N[C@@H](CCN)C(=O)NCCCCCCCCCCC(=O)O)NC(=O)[C@H](CCCN)NC1=O [Example 1256] ({CH2CO}-[Dap]Y(Carboxymethyl)D[mTyr]Y[Bip]Y[NMeA][dA][Dab][Cha]V[Orn]C[Dab][Aun]-OH; thioether N-14) | 502 nM
3 | CC(C)C[C@@H]1NC(=O)[C@H](Cc2c[nH]c3ccccc23)NC(=O)[C@H](CC(=O)O)NC(=O)[C@H](Cc2c[nH]cn2)NC(=O)[C@H](CCCCNC(=N)N)NC(=O)CSC[C@@H](C(=O)N[C@@H](CCN)C(=O)NCCCCCCCCCCC(=O)O)NC(=O)[C@H](CCCCN)NC(=O)[C@H](C(C)C)NC(=O)[C@H](CC2CCCCC2)NC(=O)[C@H](CCN)NC(=O)[C@@H](CC(C)C)NC(=O)[C@H](C)N(C)C(=O)[C@H](C(C)C)NC(=O)[C@H](Cc2ccc(-c3ccccc3)cc2)NC1=O [Example 2194] ({CH2CO}-[hArg]HDWL[Bip]V[NMeA][dL][Dab][Cha]VKC[Dab][Aun]-OH; thioether N-14) | 39.6 nM
4 | Cc1cccc(C[C@@H]2NC(=O)[C@H](CC(=O)O)NC(=O)[C@H](Cc3ccc(C(=O)O)cc3)NC(=O)[C@H](CCN)NC(=O)CSC[C@@H](C(=O)N[C@@H](CCN)C(=O)NCCCCCCCCCCC(=O)O)NC(=O)[C@H](CO)NC(=O)[C@H](C(C)(C)O)NC(=O)[C@H](CC3CCCCC3)NC(=O)[C@H](CCN)NC(=O)[C@@H](CC(C)C)NC(=O)[C@H](C)N(C)C(=O)[C@H](Cc3ccc(OCC(=O)O)cc3)NC(=O)[C@H](Cc3ccc(-c4ccccc4)cc3)NC(=O)[C@H](CCCC(=O)O)NC2=O)c1 [Example 1298] ({CH2CO}-[Dab][Phe(4-COOH)]D[Phe(3-Me)][Aad][Bip]Y(Carboxymethyl)[NMeA][dL][Dab][Cha][Val(3-OH)]SC[Dab][Aun]-OH; thioether N-14) | 16.4 nM
5 | CCC(C)[C@@H]1NC(=O)[C@H](Cc2ccc(-c3ccccc3)cc2)NC(=O)[C@H](CC(C)C)NC(=O)[C@H](Cc2c[nH]c3ccccc23)NC(=O)[C@H](CC(=O)O)NC(=O)[C@H](Cc2ccc(C(=O)O)cc2)NC(=O)[C@H](Cc2ccc(OCC(=O)O)cc2)NC(=O)CSC[C@@H](C(=O)N[C@H](CC(N)=O)C(=O)NCCOCCOCC(=O)NCCCCCCCCCCC(=O)O)NC(=O)[C@H](CO)NC(=O)[C@H](C(C)C)NC(=O)[C@H](CC2CCCCC2)NC(=O)[C@H](CCN)NC(=O)[C@@H](CC(C)C)NC(=O)[C@H](C)N(C)C1=O (stereo partly drawn) [Example 2065] ({CH2CO}-Y(Carboxymethyl)[Phe(4-COOH)]DWL[Bip][Ile(3ξ)][NMeA][dL][Dab][Cha]VSC[dN][AEEA][Aun]-OH; thioether N-14) | 17.3 nM
6 | CC[C@H](C)[C@@H]1NC(=O)[C@H](Cc2ccc(-c3ccccc3)cc2)NC(=O)[C@H](CC(C)C)NC(=O)[C@H](Cc2c[nH]c3ccccc23)NC(=O)[C@H](CC(=O)O)NC(=O)[C@H](Cc2ccc(C(=O)O)cc2)NC(=O)[C@H](Cc2ccc(OCC(=O)O)cc2)NC(=O)CSC[C@@H](C(=O)N[C@@H](CCCN)C(=O)NCCCCCCCCCCC(=O)O)NC(=O)[C@H](CO)NC(=O)[C@H](C(C)C)NC(=O)[C@H](CC2CCCCC2)NC(=O)[C@H](CCN)NC(=O)[C@@H](CC(C)C)NC(=O)[C@H](C)N(C)C1=O [Example 1072] ({CH2CO}-Y(Carboxymethyl)[Phe(4-COOH)]DWL[Bip]I[NMeA][dL][Dab][Cha]VSC[Orn][Aun]-OH; thioether N-14) | 18.3 nM
7 | CCC(C)[C@@H]1NC(=O)[C@H](Cc2ccc(-c3ccccc3)cc2)NC(=O)[C@H](CC(C)C)NC(=O)[C@H](Cc2c[nH]c3ccccc23)NC(=O)[C@H](CC(=O)O)NC(=O)[C@H](Cc2ccc(OCC(=O)O)cc2)NC(=O)[C@H](Cc2ccncc2)NC(=O)CSC[C@@H](C(=O)N[C@@H](CCCN)C(=O)NCCOCCOCC(=O)NCCCCCCCCCCC(=O)O)NC(=O)[C@H](C(C)O)NC(=O)[C@H](C(C)C)NC(=O)[C@H](CC2CCCCC2)NC(=O)[C@H](CCN)NC(=O)[C@@H](CC(C)C)NC(=O)[C@H](C)N(C)C1=O (stereo partly drawn) [Example 2040] ({CH2CO}-[4Pal]Y(Carboxymethyl)DWL[Bip][Ile(3ξ)][NMeA][dL][Dab][Cha]V[Thr(3ξ)]C[Orn][AEEA][Aun]-OH; thioether N-14) | 8.7 nM
8 | CC(C)C[C@H]1NC(=O)[C@H](C)N(C)C(=O)[C@H](Cc2ccc(OCC(=O)O)cc2)NC(=O)[C@H](Cc2ccc(-c3ccccc3)cc2)NC(=O)[C@H](Cc2ccc(OCC(=O)O)cc2)NC(=O)[C@H](Cc2c[nH]c3ccccc23)NC(=O)[C@H](CC(=O)O)NC(=O)[C@H](Cc2ccc(OCC(=O)O)cc2)NC(=O)[C@H]([C@@H](C)O)NC(=O)CSC[C@@H](C(=O)N[C@@H](CCCN)C(=O)NCCOCCOCC(=O)NCCCCCCCCCCC(=O)O)NC(=O)[C@H](CC(N)=O)NC(=O)[C@H](C(C)C)NC(=O)[C@H](CC2CCCCC2)NC(=O)[C@H](CCN)NC1=O [Example 1397] ({CH2CO}-TY(Carboxymethyl)DWY(Carboxymethyl)[Bip]Y(Carboxymethyl)[NMeA][dL][Dab][Cha]VNC[Orn][AEEA][Aun]-OH; thioether N-14) | 123 nM
9 | Cc1cccc(C[C@@H]2NC(=O)[C@H](CC(=O)O)NC(=O)[C@H](Cc3ccc(OCC(=O)O)cc3)NC(=O)[C@H](Cc3ccc(OCC(=O)O)cc3)NC(=O)CSC[C@@H](C(=O)N[C@@H](CO)C(=O)NCCCCCCCCCCC(=O)O)NC(=O)[C@H](C(C)O)NC(=O)[C@H](C(C)O)NC(=O)[C@H](CC3CCCCC3)NC(=O)[C@H](CCN)NC(=O)[C@@H](CC(C)C)NC(=O)[C@H](C)N(C)C(=O)[C@H](CCCNC(=N)N)NC(=O)[C@H](Cc3ccc(-c4ccccc4)cc3)NC(=O)[C@H](C(C)C)NC2=O)c1 (stereo partly drawn) [Example 2383] ({CH2CO}-Y(Carboxymethyl)Y(Carboxymethyl)D[Phe(3-Me)]V[Bip]R[NMeA][dL][Dab][Cha][Thr(3ξ)][Thr(3ξ)]CS[Aun]-OH; thioether N-14) | 15.3 nM
10 | Cc1cccc(C[C@@H]2NC(=O)[C@H](CC(=O)O)NC(=O)[C@H](Cc3ccc(C(=O)O)cc3)NC(=O)[C@H](Cc3ccc(OCC(=O)O)cc3)NC(=O)CSC[C@@H](C(=O)NCC(=O)N[C@@H](CCC(=O)O)C(=O)NCCOCCOCC(=O)N[C@@H](CCC(=O)NCCOCCOCC(=O)NCCCCCCCCCCC(=O)O)C(=O)O)NC(=O)[C@H](CO)NC(=O)[C@H](C(C)C)NC(=O)[C@H](CC(C)C)NC(=O)[C@H](CC(N)=O)NC(=O)[C@@H](CC(C)C)NC(=O)[C@H](C)N(C)C(=O)[C@H](C(C)C)NC(=O)[C@H](Cc3ccc(-c4ccccc4)cc3)NC(=O)[C@H](CC(C)C)NC2=O)c1 [Example 1018] ({CH2CO}-Y(Carboxymethyl)[Phe(4-COOH)]D[Phe(3-Me)]L[Bip]V[NMeA][dL]NLVSCGE[AEEA][γGlu][AEEA][Aun]-OH; thioether N-14) | 67.7 nM

Same assay, conditions: PE-labeled PD-L1-Ig 20 nM final, Jurkat-hPD-1 cells; read-out: Jurkat HPD1 PDL1 IC50

Row | Compound | IC50
11 | CCC(C)[C@@H]1NC(=O)[C@H](Cc2ccc(-c3ccccc3)cc2)NC(=O)[C@H](Cc2ccc(C(N)=O)cc2)NC(=O)[C@H](Cc2cccc(C)c2)NC(=O)[C@H](CC(=O)O)NC(=O)[C@H](Cc2ccc(OCC(=O)O)cc2)NC(=O)[C@H](C(C)O)NC(=O)CSC[C@@H](C(=O)N[C@@H](CCN)C(=O)NCCOCCOCC(=O)NCCCCCCCCCCC(=O)O)NC(=O)[C@H](C(C)O)NC(=O)[C@H](C(C)(C)O)NC(=O)[C@H](CC2CCCCC2)NC(=O)[C@H](CCN)NC(=O)[C@@H](CC(C)C)NC(=O)[C@H](C)N(C)C1=O (stereo partly drawn) [Example 2471] ({CH2CO}-[Thr(3ξ)]Y(Carboxymethyl)D[Phe(3-Me)][Phe(4-CONH2)][Bip][Ile(3ξ)][NMeA][dL][Dab][Cha][Val(3-OH)][Thr(3ξ)]C[Dab][AEEA][Aun]-OH; thioether N-14) | 9.3 nM
12 | CC(C)C[C@H]1NC(=O)[C@H](C)N(C)C(=O)[C@H](CCCNC(N)=O)NC(=O)[C@H](Cc2ccc(-c3ccccc3)cc2)NC(=O)[C@H](Cc2ccc(OCC(=O)O)cc2)NC(=O)[C@H](Cc2cccc(C(F)(F)F)c2)NC(=O)[C@H](CC(=O)O)NC(=O)[C@H](Cc2ccc(OCC(=O)O)cc2)NC(=O)[C@H](Cc2ccc(OCC(=O)O)cc2)NC(=O)CSC[C@@H](C(=O)N[C@@H](CCN)C(=O)NCCCCCCCCCCCCCCC(=O)O)NC(=O)[C@H](CCC(=O)O)NC(=O)[C@H](C(C)(C)O)NC(=O)[C@H](CC2CCCCC2)NC(=O)[C@H](CCN)NC1=O [Example 2625] ({CH2CO}-Y(Carboxymethyl)Y(Carboxymethyl)D[Phe(3-CF3)]Y(Carboxymethyl)[Bip][Cit][NMeA][dL][Dab][Cha][Val(3-OH)]EC[Dab]-{NH(CH2)14COOH}; thioether N-14) | 190 nM
